Measurements: patent US20230263822A1, “MODULATION OF FACTOR 11 EXPRESSION” (Ionis Pharmaceuticals, Inc., priority 2008, published 2023)
Read-outs that look alike come from different tables or passages of the source. Strand notation (5' to 3'): a small letter for the sugar, then the base; units joined by * are phosphorothioate-linked, units joined directly phosphodiester-linked; [ ] holds rarer units or linkages, { } end groups; capitals alone tell only the bases. e = 2'-O-(2-methoxyethyl) (MOE); [5mC] = 5-methylcytosine; d = 2'-deoxy (DNA)

Assays:
[1] = mouse, in vivo, sc, 50 mg/kg
[2] = Tolerability in CD1 mice: liver function (Example 41); details: 50 mg/kg s.c. twice per week for 6 weeks, plasma
[3] = Kidney function, urine protein to creatinine ratio in cynomolgus monkeys (Example 45); assay type: in vivo
Method: (§1) Groups, each consisting of two male and three female monkeys, were injected subcutaneously with ISIS 416838, ISIS 416850, ISIS 416858, ISIS 416864, or ISIS 417002 in escalating doses. Antisense oligonucleotide was administered to the monkeys at 5 mg/kg three times per a week for week 1; 5 mg/kg twice per week for weeks 2 and 3; 10 mg/kg three times per week for week 4; 10 mg/kg twice per week for weeks 5 and 6; 25 mg/kg three times per week for week 7; and 25 mg/kg twice per week for weeks 8, 9, 10, 11, and 12. One control group, consisting of two male and three female monkeys, was injected subcutaneously with PBS according to the same dosing regimen. An additional experimental group, consisting of two male and three female monkeys, was injected subcutaneously with ISIS 416850 in a chronic, lower dose regimen. Antisense oligonucleotide was administered to the monkeys at 5 mg/kg three times per week for week 1; 5 mg/kg twice per week for week 2 and 3; 10 mg/kg three times per week for week 4; and 10 mg/kg twice per week for weeks 5 to 12. Body weights were measured weekly. Blood samples were collected 14 days and 5 days before the start of treatment and subsequently once per week for Factor 11 protein activity analysis in plasma, fibrinogen measurement, PT and aPTT measurements, bleeding times, and measurement of various hematologic factors. On day 85, the monkeys were euthanized by exsanguination while under deep anesthesia, and organs harvested for further analysis.
To evaluate the impact of ISIS oligonucleotides on kidney function, urine samples were collected.

[4] = Tolerability in CD1 mice: kidney function, BUN (Example 41); details: 50 mg/kg s.c. twice per week for 6 weeks, plasma
[5] = Tolerability in CD1 mice: body weight and organ weights (Example 37); details: 50 mg/kg s.c. twice per week for 6 weeks; for body weight: increase in grams over the PBS control weight taken before the start of treatment; for Kidney weight / Liver weight / Spleen weight: percentage of the body weight
Method: Body weight was measured at the onset of the study and subsequently twice per week. The body weights of the mice are presented in Table 80 and are expressed increase in grams over the PBS control weight taken before the start of treatment. Liver, spleen, and kidney weights were measured at the end of the study, and are also presented in Table 80 as percentage of the body weight.

Factor 11 protein = Factor 11 protein in monkey plasma by sandwich ELISA (Example 45); assay type: in vivo, cynomolgus monkeys; details: for Inhibition of Factor 11 protein relative to the PBS control: plasma ELISA
Method: as §1
Plasma samples from all monkey groups taken on different days were analyzed by a sandwich-style ELISA assay (Affinity Biologicals Inc.) using an affinity-purified polyclonal anti-Factor 11 antibody as the capture antibody and a peroxidase-conjugated polyclonal anti-Factor 11 antibody as the detecting antibody. Monkey plasma was diluted 1:50 for the assay. Peroxidase activity was expressed by incubation with the substrate o-phenylenediamine. The color produced was quantified using a microplate reader at 490 nm and was considered to be proportional to the concentration of Factor 11 in the samples.
The results are presented in Table 115, expressed as percentage reduction relative to that of the PBS control.

Factor 11 mRNA = Factor 11 mRNA in cynomolgus monkey liver, day 85 (Example 45); assay type: in vivo; details: cynomolgus monkeys, s.c. escalating doses 5-25 mg/kg over 12 weeks
Method: as §1
On day 85, RNA was extracted from liver tissue for real-time PCR analysis of Factor 11 using primer probe set LTS00301 (forward primer sequence […], designated herein as SEQ ID NO 271; reverse primer sequence […], designated herein as SEQ ID NO: 272; and probe sequence TGCAGGCACAGCATCCCAGTGTTCTX, designated herein as SEQ ID NO. 273). Results are presented as percent inhibition of Factor 11, relative to PBS control.

[6] = day 15, escalating dose regimen
[7] = day 22, escalating dose regimen
[8] = day 29, escalating dose regimen
[9] = day 36, escalating dose regimen
[10] = day 43, escalating dose regimen
[11] = day 50, escalating dose regimen
[12] = day 57, escalating dose regimen
[13] = day 64, escalating dose regimen
[14] = day 71, escalating dose regimen
[15] = day 78, escalating dose regimen
[16] = day 85, escalating dose regimen
[17] = day −5, escalating dose regimen
[18] = day −14, escalating dose regimen

ISIS 416850: MOE gapmer, nucleobases 1275 to 1318 of SEQ ID NO: 1 (Table 8) (antisense TGCACAGTTTCTGGCAGGCC; MOE gapmer, wing and gap sizes not given here)
ALT [1]: 75 IU/L | AST [1]: 99 IU/L | Bilirubin [1]: 0.21 mg/dL | Cholesterol [1]: 142 mg/dL | ALT [2]: 90 IU/L | AST [2]: 115 IU/L | Albumin [2]: 3.2 | Bilirubin [2]: 0.20 mg/dL | urine protein to creatinine ratio ([3]; Day 80): 0.09 | urine protein to creatinine ratio ([3]; Day 84): 0.12 | BUN [4]: 28 mg/dL | body weight [5]: 12 g | Kidney weight [5]: 1.6% | Liver weight [5]: 6% | Spleen weight [5]: 0.4% | Factor 11 protein levels in plasma (Factor 11 protein; cynomolgus monkeys, escalating dose regimen, ELISA): time-dependent decrease in protein levels | Inhibition of Factor 11 protein relative to the PBS control (Factor 11 protein; day 8, chronic, lower dose regimen (*)): 6% | Inhibition of Factor 11 protein relative to the PBS control (Factor 11 protein; day 8, escalating dose regimen): 8% | Inhibition of Factor 11 protein relative to the PBS control (Factor 11 protein; day 15, chronic, lower dose regimen (*)): 13% | Inhibition of Factor 11 protein relative to the PBS control (Factor 11 protein; [6]): 4% | Inhibition of Factor 11 protein relative to the PBS control (Factor 11 protein; day 22, chronic, lower dose regimen (*)): 12% | Inhibition of Factor 11 protein relative to the PBS control (Factor 11 protein; [7]): 11% | Inhibition of Factor 11 protein relative to the PBS control (Factor 11 protein; day 29, chronic, lower dose regimen (*)): 20% | Inhibition of Factor 11 protein relative to the PBS control (Factor 11 protein; [8]): 15% | Inhibition of Factor 11 protein relative to the PBS control (Factor 11 protein; day 36, chronic, lower dose regimen (*)): 22% | Inhibition of Factor 11 protein relative to the PBS control (Factor 11 protein; [9]): 17% | Inhibition of Factor 11 protein relative to the PBS control (Factor 11 protein; day 43, chronic, lower dose regimen (*)): 24% | Inhibition of Factor 11 protein relative to the PBS control (Factor 11 protein; [10]): 23% | Inhibition of Factor 11 protein relative to the PBS control (Factor 11 protein; day 50, chronic, lower dose regimen (*)): 30% | Inhibition of Factor 11 protein relative to the PBS control (Factor 11 protein; [11]): 42% | Inhibition of Factor 11 protein relative to the PBS control (Factor 11 protein; day 57, chronic, lower dose regimen (*)): 34% | Inhibition of Factor 11 protein relative to the PBS control (Factor 11 protein; [12]): 49% | Inhibition of Factor 11 protein relative to the PBS control (Factor 11 protein; day 64, chronic, lower dose regimen (*)): 37% | Inhibition of Factor 11 protein relative to the PBS control (Factor 11 protein; [13]): 55% | Inhibition of Factor 11 protein relative to the PBS control (Factor 11 protein; day 71, chronic, lower dose regimen (*)): 41% | Inhibition of Factor 11 protein relative to the PBS control (Factor 11 protein; [14]): 57% | Inhibition of Factor 11 protein relative to the PBS control (Factor 11 protein; day 78, chronic, lower dose regimen (*)): 42% | Inhibition of Factor 11 protein relative to the PBS control (Factor 11 protein; [15]): 63% | Inhibition of Factor 11 protein relative to the PBS control (Factor 11 protein; day 85, chronic, lower dose regimen (*)): 34% | Inhibition of Factor 11 protein relative to the PBS control (Factor 11 protein; [16]): 64% | Inhibition of Factor 11 protein relative to the PBS control (Factor 11 protein; day −5, chronic, lower dose regimen (*)): 1% | Inhibition of Factor 11 protein relative to the PBS control (Factor 11 protein; [17]): 0% | Inhibition of Factor 11 protein relative to the PBS control (Factor 11 protein; day −14, chronic, lower dose regimen (*)): 0% | Inhibition of Factor 11 protein relative to the PBS control (Factor 11 protein; [18]): 0%

ISIS 445522: 5-8-5 or 6-8-6 MOE microwalk gapmer (Table 44) (antisense eG*e[5mC]*eA*e[5mC]*eA*dG*dT*dT*dT*d[5mC]*dT*dG*dG*e[5mC]*eA*eG*eG*e[5mC])
ALT [2]: 51 IU/L | AST [2]: 110 IU/L | Albumin [2]: 3.4 | Bilirubin [2]: 0.19 mg/dL | BUN [4]: 28 mg/dL

ISIS 445531: 5-8-5 or 6-8-6 MOE microwalk gapmer (Table 44) (antisense eG*eG*e[5mC]*eA*eT*dT*dG*dG*dT*dG*d[5mC]*dA*d[5mC]*eA*eG*eT*eT*eT)
ALT [2]: 60 IU/L | AST [2]: 127 IU/L | Albumin [2]: 3.2 | Bilirubin [2]: 0.16 mg/dL | BUN [4]: 27 mg/dL

416838 (antisense GCAACCGGGATGATGAGTGC; 5-10-5 gapmer, further chemistry not given here) [compound 416838]
% inhibition of Factor 11 mRNA in the cynomolgus monkey liver relative to the PBS control (Factor 11 mRNA): 37%

417002 (antisense GGTGCACAGTTTCTGGCAGG; 2-13-5 gapmer chemistry, further chemistry not given here) [compound 417002]
% inhibition of Factor 11 mRNA in the cynomolgus monkey liver relative to the PBS control (Factor 11 mRNA): 57%

416864 (antisense GGCAGCGGACGGCATTGGTG; 5-10-5 gapmer, further chemistry not given here) [compound 416864]
% inhibition of Factor 11 mRNA in the cynomolgus monkey liver relative to the PBS control (Factor 11 mRNA): 44%

416858 (antisense ACGGCATTGGTGCACAGTTT; 5-10-5 gapmer, further chemistry not given here) [compound 416858]
% inhibition of Factor 11 mRNA in the cynomolgus monkey liver relative to the PBS control (Factor 11 mRNA): 90%

ISIS 416864: MOE gapmer, nucleobases 1275 to 1318 of SEQ ID NO: 1 (Table 8) (antisense GGCAGCGGACGGCATTGGTG; MOE gapmer, wing and gap sizes not given here)
ALT [1]: 36 IU/L | AST [1]: 67 IU/L | Bilirubin [1]: 0.19 mg/dL | Cholesterol [1]: 152 mg/dL | urine protein to creatinine ratio ([3]; Day 80): 0.36 | urine protein to creatinine ratio ([3]; Day 84): 0.34 | body weight [5]: 12 g | Kidney weight [5]: 1.6% | Liver weight [5]: 5% | Spleen weight [5]: 0.3% | Inhibition of Factor 11 protein relative to the PBS control (Factor 11 protein; day 8, escalating dose regimen): 7% | Inhibition of Factor 11 protein relative to the PBS control (Factor 11 protein; [6]): 9% | Inhibition of Factor 11 protein relative to the PBS control (Factor 11 protein; [7]): 7% | Inhibition of Factor 11 protein relative to the PBS control (Factor 11 protein; [8]): 10% | Inhibition of Factor 11 protein relative to the PBS control (Factor 11 protein; [9]): 9% | Inhibition of Factor 11 protein relative to the PBS control (Factor 11 protein; [10]): 9% | Inhibition of Factor 11 protein relative to the PBS control (Factor 11 protein; [11]): 10% | Inhibition of Factor 11 protein relative to the PBS control (Factor 11 protein; [12]): 7% | Inhibition of Factor 11 protein relative to the PBS control (Factor 11 protein; [13]): 5% | Inhibition of Factor 11 protein relative to the PBS control (Factor 11 protein; [14]): 10% | Inhibition of Factor 11 protein relative to the PBS control (Factor 11 protein; [15]): 9% | Inhibition of Factor 11 protein relative to the PBS control (Factor 11 protein; [16]): 8% | Inhibition of Factor 11 protein relative to the PBS control (Factor 11 protein; [17]): 5% | Inhibition of Factor 11 protein relative to the PBS control (Factor 11 protein; [18]): 0%

416850 (antisense TGCACAGTTTCTGGCAGGCC; 5-10-5 gapmer, further chemistry not given here) [compound 416850]
% inhibition of Factor 11 mRNA in the cynomolgus monkey liver relative to the PBS control (Factor 11 mRNA): 84%
